Read-outs that look alike come from different tables or passages of the source.
Legend:
Pin1 [1] = target: T1, Pin1 (Homo sapiens, UniProt Q13526); assay: SPR (Biacore S200, Pin1 immobilized on CM5); also PPIase assay IC50 […]; assay type: binding
T1 construct: human Pin1 with C-terminal His tag (pET-30a-pin1, E. coli BL21)

Pin1 [2] = target: T1, Pin1; assay: as above; assay type: binding; remark: listed apart in the source

T1 sequence (Q13526 whole entry): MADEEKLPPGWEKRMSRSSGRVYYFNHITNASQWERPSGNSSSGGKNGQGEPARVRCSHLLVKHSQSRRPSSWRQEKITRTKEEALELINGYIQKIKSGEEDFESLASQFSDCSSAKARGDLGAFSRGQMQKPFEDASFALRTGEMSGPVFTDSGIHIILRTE

SMILES | Kd (Pin1 [1]) [µM] | Kd (Pin1 [2]) [µM]
NS(=O)(=O)c1ccc(-c2[nH]c3ccc(Cl)cc3c2-c2ccc(Cl)cc2)cc1 [HWH8-33, 2-(4-aminosulfonylphenyl)-3-(4-chlorophenyl)-5-chloro-indole] | 9.79 | –
NS(=O)(=O)c1ccc(-c2[nH]c3ccc(Cl)cc3c2-c2cccc(Cl)c2)cc1 [HWH8-36, 2-(4-aminosulfonylphenyl)-3-(3-chlorophenyl)-5-chloro-indole] | – | 4.87

Reference: paper PMC10083437, “Small molecules targeting Pin1 as potent anticancer drugs” (Frontiers in Pharmacology, 2023)
